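GI50: concentration for 50% inhibition of growth. Definition used: TGI = concentration required for complete inhibition of growth.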
Key:
Experiment in all cases: NCI tumour cell line growth inhibition, 384-well format
M14 melanoma = system: M14 melanoma
COLO 205 colon = system: COLO 205 colon
HT29 colon = system: HT29 colon
SK-MEL-5 melanoma = system: SK-MEL-5 melanoma
PC-3 prostate = system: PC-3 prostate
MALME-3M melanoma = system: MALME-3M melanoma
MCF7 breast = system: MCF7 breast
NCI-H226 lung = system: NCI-H226 lung
MDA-MB-435 melanoma = system: MDA-MB-435 melanoma
A549 NSCLC = system: A549 NSCLC
SF-295 CNS = system: SF-295 CNS
K-562 leukemia = system: K-562 leukemia
T-47D breast = system: T-47D breast
IGROV1 ovarian = system: IGROV1 ovarian
MDA-MB-231 breast = system: MDA-MB-231 breast
SK-MEL-2 melanoma = system: SK-MEL-2 melanoma
UACC-257 melanoma = system: UACC-257 melanoma
HS 578T breast = system: HS 578T breast
RXF 393 renal = system: RXF 393 renal
OVCAR-8 ovarian = system: OVCAR-8 ovarian
NCI-H522 lung = system: NCI-H522 lung
OVCAR-3 ovarian = system: OVCAR-3 ovarian
TK-10 renal = system: TK-10 renal
CAKI-1 renal = system: CAKI-1 renal
MDA-MB-468 breast = system: MDA-MB-468 breast
HL-60(TB) leukemia = system: HL-60(TB) leukemia
HCT-15 colon = system: HCT-15 colon
SR leukemia = system: SR leukemia
U251 glioblastoma = system: U251 glioblastoma
UO-31 renal = system: UO-31 renal
NCI-H460 NSCLC = system: NCI-H460 NSCLC
KM12 colon = system: KM12 colon
786-0 renal = system: 786-0 renal
UACC-62 melanoma = system: UACC-62 melanoma
SK-OV-3 ovarian = system: SK-OV-3 ovarian
SK-MEL-28 melanoma = system: SK-MEL-28 melanoma
SN12C renal = system: SN12C renal
SF-539 CNS = system: SF-539 CNS
OVCAR-4 ovarian = system: OVCAR-4 ovarian
SNB-19 CNS = system: SNB-19 CNS
BT-549 breast = system: BT-549 breast
OVCAR-5 ovarian = system: OVCAR-5 ovarian
SW-620 colon = system: SW-620 colon
HOP-92 NSCLC = system: HOP-92 NSCLC
SF-268 CNS = system: SF-268 CNS
SNB-75 CNS = system: SNB-75 CNS
MOLT-4 leukemia = system: MOLT-4 leukemia
HOP-62 NSCLC = system: HOP-62 NSCLC
EKVX NSCLC = system: EKVX NSCLC
ACHN renal = system: ACHN renal
NCI-H322M lung = system: NCI-H322M lung
HCT-116 colon = system: HCT-116 colon
DU-145 prostate = system: DU-145 prostate
A498 renal = system: A498 renal
NCI-H23 lung = system: NCI-H23 lung

## COc1cc2c(N3CCN(C(=O)Nc4ccc(OC(C)C)cc4)CC3)ncnc2cc1OCCCN1CCCCC1
M14 melanoma
  GI50: 12.3 µM
  TGI: 24.9 µM
COLO 205 colon
  GI50: 12.1 µM
  TGI: 24.7 µM
HT29 colon
  GI50: 3.24 µM
  TGI: 11.3 µM
SK-MEL-5 melanoma
  GI50: 9 µM
  TGI: 21.1 µM
PC-3 prostate
  GI50: 10.8 µM
  TGI: 24 µM
MALME-3M melanoma
  GI50: 5.03 µM
  TGI: 17.2 µM
MCF7 breast
  GI50: 3.18 µM
  TGI: 15.1 µM
NCI-H226 lung
  GI50: 7.66 µM
  TGI: 21.5 µM
MDA-MB-435 melanoma
  GI50: 13 µM
  TGI: 25.9 µM
A549 NSCLC
  GI50: 14.1 µM
  TGI: 29 µM
SF-295 CNS
  GI50: 11.5 µM
  TGI: 23.8 µM
K-562 leukemia
  GI50: 3.31 µM
  TGI: 11.5 µM
T-47D breast
  GI50: 10.4 µM
  TGI: 22.3 µM
IGROV1 ovarian
  GI50: 13.4 µM
  TGI: 26.9 µM
MDA-MB-231 breast
  GI50: 13.6 µM
  TGI: 31.4 µM
SK-MEL-2 melanoma
  GI50: 3.78 µM
  TGI: 12.8 µM
UACC-257 melanoma
  GI50: 1.99 µM
  TGI: 4.04 µM
HS 578T breast
  GI50: 4.87 µM
  TGI: 17.9 µM
RXF 393 renal
  GI50: 2.82 µM
  TGI: 9.78 µM
OVCAR-8 ovarian
  GI50: 11.3 µM
  TGI: 32.3 µM
NCI-H522 lung
  GI50: 12.5 µM
  TGI: 25 µM
OVCAR-3 ovarian
  GI50: 14.3 µM
  TGI: 28.2 µM
TK-10 renal
  GI50: 10.8 µM
  TGI: 25.2 µM
CAKI-1 renal
  GI50: 2.25 µM
  TGI: 6.6 µM
MDA-MB-468 breast
  GI50: 3.91 µM
  TGI: 14.5 µM
HL-60(TB) leukemia
  GI50: 15 µM
  TGI: 28.4 µM
HCT-15 colon
  GI50: 15.8 µM
  TGI: 29.5 µM
SR leukemia
  GI50: 1.93 µM
  TGI: 3.54 µM
U251 glioblastoma
  GI50: 11 µM
  TGI: 23.1 µM
UO-31 renal
  GI50: 16.4 µM
  TGI: 30.1 µM
NCI-H460 NSCLC
  GI50: 2.48 µM
  TGI: 12.2 µM
KM12 colon
  GI50: 12.3 µM
  TGI: 25.1 µM
786-0 renal
  GI50: 8.32 µM
  TGI: 20.7 µM
UACC-62 melanoma
  GI50: 7.65 µM
  TGI: 20.6 µM
SK-OV-3 ovarian
  GI50: 12.5 µM
  TGI: 25.2 µM
SK-MEL-28 melanoma
  GI50: 12.3 µM
  TGI: 24.8 µM
SN12C renal
  GI50: 13.1 µM
  TGI: 26.2 µM
SF-539 CNS
  GI50: 1.84 µM
  TGI: 16.4 µM
OVCAR-4 ovarian
  GI50: 13.9 µM
  TGI: 30.5 µM
SNB-19 CNS
  GI50: 16 µM
  TGI: 41.6 µM
BT-549 breast
  GI50: 8.6 µM
  TGI: 20.8 µM
OVCAR-5 ovarian
  GI50: 13.1 µM
  TGI: 35 µM
SW-620 colon
  GI50: 10.9 µM
  TGI: 23.1 µM
HOP-92 NSCLC
  GI50: 9.13 µM
  TGI: 21.3 µM
SF-268 CNS
  GI50: 8.64 µM
  TGI: 21.1 µM
SNB-75 CNS
  GI50: 9.87 µM
  TGI: 21.6 µM
MOLT-4 leukemia
  GI50: 2.61 µM
  TGI: 5.95 µM
HOP-62 NSCLC
  GI50: 7.62 µM
  TGI: 21.1 µM
EKVX NSCLC
  GI50: 5.21 µM
  TGI: 19.5 µM
ACHN renal
  GI50: 9.76 µM
  TGI: 22.6 µM
NCI-H322M lung
  GI50: 12.1 µM
  TGI: 32.7 µM
HCT-116 colon
  GI50: 9.38 µM
  TGI: 21.6 µM
DU-145 prostate
  GI50: 12.5 µM
  TGI: 26.3 µM
A498 renal
  GI50: 5.09 µM
  TGI: 17.3 µM
NCI-H23 lung
  GI50: 12 µM
  TGI: 25.7 µM
